# Results taken from patent publication US12685312B2, “Sulfonamide apyrase inhibitors” (Texas Crop Science, Inc., priority 2022, dated 2026).
# Tested on: apyrase
# Assay: Screen for apyrase inhibitors (Method 1, in vitro phosphate-release absorbance assay)
# Assay type: biochemical
# Settings: inhibitor conc at 1 mM stock, 1 hr room temperature, absorbance 630 nm; rounded average of two assay results
# Procedure, shortened: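 Phosphate-release colorimetric assay (Windsor method) in 60 mM Hepes, 3 mM MgCl2, 3 mM CaCl2, 3 mM ATP, pH 6.5, with compound or DMSO control added. Released phosphate developed with ammonium molybdate and ascorbic acid/TCA, then stopped with citrate/acetic acid.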
row,Structure (SMILES),% Inhibition of Apyrase [%]
1,"O=C(Nc1nccs1)c1cccc(NS(=O)(=O)c2cc(Cl)ccc2Cl)c1 [I-639, 3-((2,5-dichlorophenyl)sulfonamido)-N-(thiazol-2-yl)benzamide]",56
2,"CCOc1ccc(S(=O)(=O)Nc2cccc(C(=O)Nc3ccc(C)cn3)c2)cc1 [I-640, 3-((4-ethoxyphenyl)sulfonamido)-N-(5-methylpyridin-2-yl)benzamide]",56
3,"Cc1ccc(C)c(S(=O)(=O)Nc2cccc(C(=O)Nc3ccc(F)cn3)c2)c1 [I-641, 3-((2,5-dimethylphenyl)sulfonamido)-N-(5-fluoropyridin-2-yl)benzamide]",55
4,"O=C(Nc1cccc(C(F)(F)F)c1)c1cccc(NS(=O)(=O)c2cccs2)c1 [I-642, 3-(thiophene-2-sulfonamido)-N-(3-(trifluoromethyl)phenyl)benzamide]",55
5,"O=C(Nc1cccc(C(F)(F)F)c1)c1cccc(NS(=O)(=O)c2ccc(Cl)nc2)c1 [I-643, 3-((6-chloropyridine)-3-sulfonamido)-N-(3-(trifluoromethyl)phenyl)benzamide]",55
6,"O=C(Nc1nccs1)c1cccc(NS(=O)(=O)c2ccc3c(c2)OCCCO3)c1 [I-644, 3-((3,4-dihydro-2H-benzo[b][1,4]dioxepine)-7-sulfonamido)-N-(thiazol-2-yl)benzamide]",54
7,"COc1ccc(NC(=O)c2cccc(NS(=O)(=O)c3ccc(Br)cc3)c2)cn1 [I-645, 3-((4-bromophenyl)sulfonamido)-N-(6-methoxypyridin-3-yl)benzamide]",54
8,"Cc1ccc(NC(=O)c2cccc(NS(=O)(=O)c3ccc(Br)cc3)c2)nc1 [I-646, 3-((4-bromophenyl)sulfonamido)-N-(5-methylpyridin-2-yl)benzamide]",54
9,"CCCCc1nnc(NC(=O)c2cccc(NS(=O)(=O)c3ccc(C)c(F)c3)c2)s1 [I-647, N-(5-butyl-1,3,4-thiadiazol-2-yl)-3-((3-fluoro-4-methylphenyl)sulfonamido)benzamide]",53
10,"O=C(Nc1cccnc1)c1cccc(NS(=O)(=O)c2ccc(Br)cc2)c1 [I-648, 3-((4-bromophenyl)sulfonamido)-N-(pyridin-3-yl)benzamide]",51
11,"Cc1ccc(S(=O)(=O)Nc2cccc(C(=O)Nc3nc4ccccc4[nH]3)c2)cc1F [I-649, N-(1H-benzo[d]imidazol-2-yl)-3-((3-fluoro-4-methylphenyl)sulfonamido)benzamide]",50
12,"Cc1csc(NC(=O)c2cccc(NS(=O)(=O)c3ccc4c(c3)OCCCO4)c2)n1 [I-650, 3-((3,4-dihydro-2H-benzo[b][1,4]dioxepine)-7-sulfonamido)-N-(4-methylthiazol-2-yl)benzamide]",50
13,"Cc1ccnc(NC(=O)c2cccc(NS(=O)(=O)c3ccc(C)c(F)c3)c2)c1 [I-651, 3-((3-fluoro-4-methylphenyl)sulfonamido)-N-(4-methylpyridin-2-yl)benzamide]",50
14,"O=C(Nc1nnc(C2CC2)s1)c1cccc(NS(=O)(=O)c2ccccc2)c1 [I-652, N-(5-cyclopropyl-1,3,4-thiadiazol-2-yl)-3-(phenylsulfonamido)benzamide]",45
15,"Cn1nc2c(c1NC(=O)c1cccc(NS(=O)(=O)c3ccc(Br)cc3)c1)CCC2 [I-653, 3-((4-bromophenyl)sulfonamido)-N-(2-methyl-2,4,5,6-tetrahydrocyclopenta[c]pyrazol-3-yl)benzamide]",44
16,"COc1ccc(NC(=O)c2cccc(NS(=O)(=O)c3cc(Cl)ccc3Cl)c2)cn1 [I-654, 3-((2,5-dichlorophenyl)sulfonamido)-N-(6-methoxypyridin-3-yl)benzamide]",42
17,"Cc1ccc(NC(=O)c2cccc(NS(=O)(=O)c3ccc(C)c(F)c3)c2)nc1 [I-655, 3-((3-fluoro-4-methylphenyl)sulfonamido)-N-(5-methylpyridin-2-yl)benzamide]",35
18,"O=C(Nc1nc2ccccc2[nH]1)c1cccc(NS(=O)(=O)c2ccc3c(c2)OCCO3)c1 [I-656, N-(1H-benzo[d]imidazol-2-yl)-3-((2,3-dihydrobenzo[b][1,4]dioxine)-6-sulfonamido)benzamide]",34
19,"O=C(Nc1[nH]ncc1-c1ccccc1)c1cccc(NS(=O)(=O)c2ccc(F)c(F)c2)c1 [I-657, 3-((3,4-difluorophenyl)sulfonamido)-N-(4-phenyl-1H-pyrazol-5-yl)benzamide]",34
20,"O=C(Nc1ccccc1)c1cccc(NS(=O)(=O)c2cccs2)c1 [I-658, N-phenyl-3-(thiophene-2-sulfonamido)benzamide]",32
21,"O=C(Nc1cnccn1)c1cccc(NS(=O)(=O)c2c(F)cccc2F)c1 [I-659, 3-((2,6-difluorophenyl)sulfonamido)-N-(pyrazin-2-yl)benzamide]",31
22,"O=C(Nc1nccs1)c1cccc(NS(=O)(=O)c2ccc3c(c2)OCCO3)c1 [I-660, 3-((2,3-dihydrobenzo[b][1,4]dioxine)-6-sulfonamido)-N-(thiazol-2-yl)benzamide]",29

row,Structure (SMILES),% Inhibition of Apyrase [%]
1,"O=C(Nc1nccs1)c1cccc(NS(=O)(=O)c2ccc(Br)cc2)c1 [I-661, 3-((4-bromophenyl)sulfonamido)-N-(thiazol-2-yl)benzamide]",26
2,"Cc1ccc(NC(=O)c2cccc(NS(=O)(=O)c3cccs3)c2)c(C)c1 [I-662, N-(2,4-dimethylphenyl)-3-(thiophene-2-sulfonamido)benzamide]",26
3,"Cc1ccnc(NC(=O)c2cccc(NS(=O)(=O)c3ccc4c(c3)OCCCO4)c2)c1 [I-663, 3-((3,4-dihydro-2H-benzo[b][1,4]dioxepine)-7-sulfonamido)-N-(4-methylpyridin-2-yl)benzamide]",25
4,"Cc1nc2cc(NC(=O)c3cccc(NS(=O)(=O)c4cccs4)c3)ccc2o1 [I-664, N-(2-methylbenzo[d]oxazol-5-yl)-3-(thiophene-2-sulfonamido)benzamide]",24
5,"O=C(Nc1ccccc1Cl)c1cccc(NS(=O)(=O)c2cccs2)c1 [I-665, N-(2-chlorophenyl)-3-(thiophene-2-sulfonamido)benzamide]",22
6,"O=C(Nc1ccc(Br)cn1)c1cccc(NS(=O)(=O)c2ccc(F)c(Cl)c2)c1 [I-666, N-(5-bromopyridin-2-yl)-3-((3-chloro-4-fluorophenyl)sulfonamido)benzamide]",21
7,"Cc1csc(NC(=O)c2cccc(NS(=O)(=O)c3ccccc3)c2)n1 [I-667, N-(4-methylthiazol-2-yl)-3-(phenylsulfonamido)benzamide]",12
8,"O=C(Nc1cnccc1O)c1cccc(NS(=O)(=O)c2ccc(Cl)c(Cl)c2)c1 [I-668, 3-((3,4-dichlorophenyl)sulfonamido)-N-(4-hydroxypyridin-3-yl)benzamide]",10
9,"Cc1ccc(C)c(S(=O)(=O)Nc2cccc(C(=O)Nc3cnccn3)c2)c1 [I-669, 3-((2,5-dimethylphenyl)sulfonamido)-N-(pyrazin-2-yl)benzamide]",7
10,"O=C(Nc1cnccn1)c1cccc(NS(=O)(=O)c2ccccc2)c1 [I-670, 3-(phenylsulfonamido)-N-(pyrazin-2-yl)benzamide]",6
11,"CCOc1ccc(S(=O)(=O)Nc2cccc(C(=O)Nc3nnc[nH]3)c2)cc1 [I-671, 3-((4-ethoxyphenyl)sulfonamido)-N-(4H-1,2,4-triazol-3-yl)benzamide]",2
12,"O=C(Nc1nnc[nH]1)c1cccc(NS(=O)(=O)c2ccc(Br)cc2)c1 [I-672, 3-((4-bromophenyl)sulfonamido)-N-(4H-1,2,4-triazol-3-yl)benzamide]",1
13,"O=C(Nc1cccc(S(=O)(=O)Nc2ccc(Br)cc2)c1)c1ccsc1 [I-701, N-(3-(N-(4-bromophenyl)sulfamoyl)phenyl)thiophene-3-carboxamide]",79
14,"O=C(Nc1cccc(S(=O)(=O)Nc2ccc(Br)cc2)c1)c1ccc([N+](=O)[O-])s1 [I-702, N-(3-(N-(4-bromophenyl)sulfamoyl)phenyl)-5-nitrothiophene-2-carboxamide]",73
15,"O=C(Nc1cccc(S(=O)(=O)Nc2ccc(Br)cc2)c1)c1ccc(Cl)nc1 [I-703, N-(3-(N-(4-bromophenyl)sulfamoyl)phenyl)-6-chloronicotinamide]",71
16,"CN(c1ccccc1)S(=O)(=O)c1cccc(NC(=O)c2cc3cc(F)ccc3[nH]2)c1 [I-704, 5-fluoro-N-(3-(N-methyl-N-phenylsulfamoyl)phenyl)-1H-indole-2-carboxamide]",65
17,"Cc1cc(C(=O)Nc2cccc(S(=O)(=O)Nc3ccccc3F)c2)c(C)n1C1CC1 [I-705, 1-cyclopropyl-N-(3-(N-(2-fluorophenyl)sulfamoyl)phenyl)-2,5-dimethyl-1H-pyrrole-3-carboxamide]",64
18,"CN(c1ccccc1)S(=O)(=O)c1cccc(NC(=O)c2ccc(Br)s2)c1 [I-706, 5-bromo-N-(3-(N-methyl-N-phenylsulfamoyl)phenyl)thiophene-2-carboxamide]",62
19,"COc1ccccc1NS(=O)(=O)c1cccc(NC(=O)c2c[nH]c3ccccc23)c1 [I-707, N-(3-(N-(2-methoxyphenyl)sulfamoyl)phenyl)-1H-indole-3-carboxamide]",62
20,"Cc1cccc(C(=O)Nc2cccc(S(=O)(=O)Nc3cccc(C(F)(F)F)c3)c2)n1 [I-708, 6-methyl-N-(3-(N-(3-(trifluoromethyl)phenyl)sulfamoyl)phenyl) picolinamide]",61
21,"O=C(Nc1cccc(S(=O)(=O)Nc2ccc(Cl)cc2)c1)c1cc2c(s1)CCCC2 [I-709, N-(3-(N-(4-chlorophenyl)sulfamoyl)phenyl)-4,5,6,7-tetrahydrobenzo[b]thiophene-2-carboxamide]",61
